# Columns and labels:
# Vγ9Vδ2 T cells [1] = test: Survival of Vγ9Vδ2 T cells in HD-PBMC (Caspase3/7 and dead cell marker, flow cytometry); type: cell-based, human; settings: for reduced survival of Vγ9Vδ2 T cells compared to no Venetoclax condition: simultaneous treatment with ICT01 1 μg/mL
# Protocol: The effect of ICT01 on the survival of Vγ9Vδ2 T cells upon treatment with Bcl-2 family member inhibitors was assessed in Peripheral Blood Mononuclear Cells from Healthy Donors (HD-PBMC) using the apoptotic marker Caspase3/7 and a dead cell marker in flow cytometry analysis.
# (§1) Peripheral Blood Mononuclear Cells (PBMC) were isolated by Ficoll density gradient centrifugation of peripheral blood (EDTA-buffy coats) from healthy donors (HD, n=4-6), cultured in PBMC medium (RPMI 1640 Medium supplemented with 10% Fetal Bovine Serum (FBS), 1% Penicillin/Streptomycin and 1 mM Sodium Pyruvate) and treated with ICT01 or its isotype control (hIgG1S) used at 1 μg/mL in the presence or absence of increasing concentrations of Venetoclax (0-0.1 μM), 5-Azacytidine (0-0.4 μM) or the combination, or ABT-737 (0-1.875 μM), Navitoclax (0-1.875 μM) or MIK665 (0-1.875 μM). Cells were harvested on day 2, centrifuged at 1800 rpm for 5 minutes and then incubated 10 minutes at room temperature (RT) with 25 μl of FcR blocking reagent (Miltenyi Biotec) before adding 25 μL of the following antibody mix prepared in PBS+2% FBS+2 mM EDTA (FACS buffer): anti-CD4-BUV395, CD56-BV421, Vd2-PE, CD3-PE-CF594 and CD8-A700 antibodies for the identification of immune subsets, anti-CD25-BV650 and CD69-APC antibodies were added to monitor activation status of Vγ9Vδ2 T cells, and a viability marker (LIVE/DEAD™ Fixable Dead Cell Stain) was added to distinguish live from dead cells. Cells were incubated 20 minutes at room temperature (RT) and washed 2 times with FACS buffer. A Caspase3/7 Green detection reagent (ThermoFisher) was added to determine apoptosis and cells were incubated for 30 minutes at RT before flow cytometry analysis.
# In a similar experiment, freshly isolated PBMC were stimulated with ICT01 or its isotype control hIgG1S for 1 day prior to a 2 day-treatment with Venetoclax (FIG. 3a). The number of live Vγ9Vδ2 T cells was assessed by flow cytometry at the end of the incubation time.
# Vγ9Vδ2 T cells [2] = test: Phenotypic activation of Vγ9Vδ2 T cells in HD-PBMC (CD69/CD25 expression, flow cytometry); type: cell-based, human; settings: for activation of Vγ9Vδ2 T cells by ICT01 (CD25 expression): HD-PBMC treated one day with Venetoclax (0-0.1 μM), 5-Azacytidine (0-0.4 μM) prior to ICT01 for two days; for effect on the ICT01-induced upregulation of CD25 by Vγ9Vδ2 T cells: day 4, together with ICT01 1 μg/mL, Venetoclax 0-0.1 μM, 5-Azacytidine 0-0.4 μM
# Protocol: as §1
# ICT01-induced phenotypic activation of Vγ9Vδ2 T cells is indicated by the upregulation of CD25. Therefore, human PBMC from healthy donors (HD, n=6) were cultured with ICT01 or its isotype control (hIgG1S) used at 1 μg/mL in the presence or absence of increasing concentrations of Venetoclax (0-0.1 μM), 5-Azacytidine (0-0.4 μM) or the combination in PBMC medium (RPMI 1640 Medium supplemented with 10% FBS, 1% Penicillin/Streptomycin and 1 mM Sodium Pyruvate). Cells were harvested on day 4, centrifuged at 1800 rpm for 5 minutes and then incubated 10 minutes at room temperature (RT) with 25 μl of FcR blocking reagent (Miltenyi Biotec) before adding 25 μL of the following antibody mix prepared in PBS+2% FBS+2 mM EDTA (FACS buffer): anti-CD4-BV650, CD56-FITC, Vd2-PE, CD3-PE-CF594 and CD8-A700 antibodies for the identification of immune subsets, an anti-CD25-BV650 antibody was added to monitor activation status, and a viability marker (LIVE/DEAD™ Fixable Dead Cell Stain) was added to distinguish live from dead cells. Cells were incubated 20 minutes at 4° C. and washed 2 times in FACS buffer before flow cytometry analysis.
# In a similar experiment, freshly isolated healthy donor-derived PBMC were treated with increasing concentrations of Venetoclax (0-0.1 μM), 5-Azacytidine (0-0.4 μM) or the combination for one day prior to stimulation with ICT01 or its isotype control hIgG1S for two days. Again, activation of Vγ9Vδ2T cells by ICT01 was unaffected by Venetoclax and 5-Azacytidine treatment, as indicated by the similar induction of CD25 expression in all conditions tested (Figure b).
# [3] = 0.01 μM Venetoclax, HD-PBMC, 48 h
# [4] = 0.1 μM Venetoclax, HD-PBMC, 48 h
Molecule,"effect on the survival of Vγ9Vδ2 T cells (Vγ9Vδ2 T cells [1]; HD-PBMC, 48 h, 5-Azacytidine 0-0.4 μM)",activation of Vγ9Vδ2 T cells by ICT01 (CD25 expression) (Vγ9Vδ2 T cells [2]),effect on the ICT01-induced upregulation of CD25 by Vγ9Vδ2 T cells (Vγ9Vδ2 T cells [2]; HD-PBMC),"Venetoclax induced cell death of Vγ9Vδ2 T cells (Vγ9Vδ2 T cells [1]; PBMC stimulated with ICT01 for 1 day prior to a 2 day-treatment with Venetoclax, vs hIgG1S)","activation of Vγ9Vδ2 T cells: expression of CD69 and CD25 (Vγ9Vδ2 T cells [2]; HD-PBMC, 2 days, ICT01 1 μg/mL, compared to hIgG1S)",reduction of live cells (Vγ9Vδ2 T cells) compared to no Venetoclax condition (Vγ9Vδ2 T cells [1]; [3]),reduced survival of Vγ9Vδ2 T cells compared to no Venetoclax condition (Vγ9Vδ2 T cells [1]; [3]),reduction of live cells (Vγ9Vδ2 T cells) compared to no Venetoclax condition (Vγ9Vδ2 T cells [1]; [4]),reduced survival of Vγ9Vδ2 T cells compared to no Venetoclax condition (Vγ9Vδ2 T cells [1]; [4])
"Nc1ncn([C@@H]2O[C@H](CO)[C@@H](O)[C@H]2O)c(=O)n1 [5-Azacytidine, 4-amino-1-[(2R,3R,4S,5R)3,4-dihydroxy-5-(hydroxymethyl)oxolan-2-yl]-1,3,5-triazin-2-one]",no effect,unaffected,no effect,–,–,–,–,–,–
"ICT01: humanized BTN3A activating antibody of mAb 7.2, heavy chain SEQ ID NO: 4, light chain SEQ ID NO: 6, silent IgG1 L247F/L248E/P350S",–,–,–,significantly reduced,increased expression of CD69 and CD25,–,–,–,–
"CC1(C)CCC(CN2CCN(c3ccc(C(=O)NS(=O)(=O)c4ccc(NCC5CCOCC5)c([N+](=O)[O-])c4)c(Oc4cnc5[nH]ccc5c4)c3)CC2)=C(c2ccc(Cl)cc2)C1 [Venetoclax, 4-[4-[[2-(4-chlorophenyl)-4,4-dimethylcyclohexen-1-yl]methyl]piperazin-1-yl]-N-[3-nitro-4-(oxan-4-ylmethylamino)phenyl]sulfonyl-2-(1H-pyrrolo[2,3-b]pyridin-5-yloxy)benzamide]",–,unaffected,no effect,–,–,~ 29%,~ 11%,~ 49%,~ 30%

# — US20260256909A1, “COMBINATION OF A BTN3A ACTIVATING ANTIBODY, A BCL2 INHIBITOR AND HYPOMETHYLATING AGENT FOR USE IN TREATING CANCER” (Imcheck Therapeutics, priority 2022, published 2026)
